Reference: patent publication US12780800B1, “Triazole-pyridinyl substituted azacyclohexyl acetic acid compounds as LPA receptor antagonists” (Viva Star Biosciences Limited, priority 2021, dated 2022)

Target: T1, LPA1 (Homo sapiens, UniProt Q92633)
T1 construct: ProLink (PK) beta-galactosidase enzyme-fragment tag; host or cells: CHO-K1
Assay: LPA1 calcium flux assay (LPA1 functional antagonist assay)
Type: cell-based
Details: PathHunter CHO-K1 EDG2 β-Arrestin cell line; calcium indicator dye; stimulated with EC80 concentration of LPA; FLIPR Tetra
In short: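 The LPA1 antagonist readout was intracellular calcium flux, and IC50 values were calculated from it. Plates stood 30 min at RT after compound addition. Cells, grown overnight, had first taken up calcium dye over 45 min at 37 °C.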

T1 sequence (Q92633 whole entry, the tested form may be a part): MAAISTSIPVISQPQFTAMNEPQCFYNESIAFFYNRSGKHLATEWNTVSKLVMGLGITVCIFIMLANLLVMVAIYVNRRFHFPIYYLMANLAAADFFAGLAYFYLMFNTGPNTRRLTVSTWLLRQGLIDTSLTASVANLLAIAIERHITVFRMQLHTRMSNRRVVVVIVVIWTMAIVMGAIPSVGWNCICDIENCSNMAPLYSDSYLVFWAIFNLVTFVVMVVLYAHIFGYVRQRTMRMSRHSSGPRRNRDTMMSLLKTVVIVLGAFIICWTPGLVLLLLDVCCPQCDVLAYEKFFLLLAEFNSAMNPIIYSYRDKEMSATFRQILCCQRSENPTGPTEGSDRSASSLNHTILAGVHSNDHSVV

**Q.** With `CCc1nc(-c2nnn(C)c2COc2nccc(C3CCC3)n2)ccc1N1C[C@@H](CC(=O)O)CC(F)(F)C1` [Example 79, (S)-2-(1-(6-(5-(((4-cyclobutylpyrimidin-2-yl)oxy)methyl)-1-methyl-1H-1,2,3-triazol-4-yl)-2-ethylpyridin-3-yl)-5,5-difluoropiperidin-3-yl)acetic acid] as the molecule, how does the IC50 read?
**A.** Its IC50 is less than 100 nM.

**Q.** Which IC50 does the source give for `CCCn1ccnc(OCc2c(-c3ccc(N4C[C@@H](CC(=O)O)CC(F)(F)C4)c(C)n3)nnn2C)c1=O` [Example 106, (S)-2-(5,5-difluoro-1-(2-methyl-6-(1-methyl-5-(((3-oxo-4-propyl-3,4-dihydropyrazin-2-yl)oxy)methyl)-1H-1,2,3-triazol-4-yl)pyridin-3-yl)piperidin-3-yl)acetic acid] here?
**A.** The IC50 was greater than 5000 nM.

**Q.** How did the IC50 turn out when `Cc1nc(-c2nnn(C)c2CN2C[C@@H](CC3CC3)N(C)C2=O)ccc1N1C[C@@H](CC(=O)O)CC(F)(F)C1` [Example 62, 2-((S)-1-(6-(5-(((R)-4-(cyclopropylmethyl)-3-methyl-2-oxoimidazolidin-1-yl)methyl)-1-methyl-1H-1,2,3-triazol-4-yl)-2-methylpyridin-3-yl)-5,5-difluoropiperidin-3-yl)acetic acid] was run?
**A.** Its IC50 is 500 to 5000 nM.

**Q.** With `CCc1nc(-c2nnn(C)c2Cn2nnc(CC3CC3)n2)ccc1N1C[C@@H](CC(=O)O)CC(F)(F)C1` [Example 137, 2-[(3S)-1-[6-(5-{[5-(cyclopropylmethyl)-2H-1,2,3,4-tetrazol-2-yl]methyl}-1-methyl-1H-1,2,3-triazol-4-yl)-2-ethylpyridin-3-yl]-5,5-difluoropiperidin-3-yl]acetic acid] as the molecule, how does the IC50 read?
**A.** Its IC50 is 100 to 500 nM.

**Q.** `CCCn1ccc(=O)c(OCc2c(-c3ccc(N4C[C@@H](CC(=O)O)CC(F)(F)C4)c(CC)n3)nnn2C)n1` [Example 111, (S)-2-(1-(2-ethyl-6-(1-methyl-5-(((4-oxo-1-propyl-1,4-dihydropyridazin-3-yl)oxy)methyl)-1H-1,2,3-triazol-4-yl)pyridin-3-yl)-5,5-difluoropiperidin-3-yl)acetic acid] was tested. Which IC50 did it give?
**A.** The IC50 was greater than 5000 nM.

**Q.** For `CCc1nc(-c2nnn(C)c2Cn2cc(C#CC3CC3)ccc2=O)ccc1N1C[C@@H](CC(=O)O)CC(F)(F)C1` [Example 21, (S)-2-(1-(6-(5-((5-(cyclopropylethynyl)-2-oxopyridin-1(2H)-yl)methyl)-1-methyl-1H-1,2,3-triazol-4-yl)-2-ethylpyridin-3-yl)-5,5-difluoropiperidin-3-yl)acetic acid], which IC50 is on record?
**A.** Its IC50 is 500 to 5000 nM.

**Q.** With `CCCc1ccc(=O)n(Cc2c(-c3cc(F)c(N4CCCC(CC(=O)O)C4)c(C)n3)nnn2C)c1` (stereo not shown) [Example 47, 2-(1-(4-fluoro-2-methyl-6-(1-methyl-5-((2-oxo-5-propylpyridin-1(2H)-yl)methyl)-1H-1,2,3-triazol-4-yl)pyridin-3-yl)piperidin-3-yl)acetic acid] as the molecule, how does the IC50 read?
**A.** Its IC50 is greater than 5000 nM.

**Q.** How did the IC50 turn out when `Cc1nc(-c2nnn(C)c2COc2nccc(C3CCC3)n2)ccc1N1CCC[C@H](CC(=O)O)C1` [Example 84, (R)-2-(1-(6-(5-(((4-cyclobutylpyrimidin-2-yl)oxy)methyl)-1-methyl-1H-1,2,3-triazol-4-yl)-2-methylpyridin-3-yl)piperidin-3-yl)acetic acid] was run?
**A.** The IC50 was less than 100 nM.

**Q.** With `CCc1nc(-c2nnn(C)c2COc2cc(-n3cccn3)ncn2)ccc1N1CCC[C@H](CC(=O)O)C1` [Example 82, (R)-2-(1-(6-(5-(((6-(1H-pyrazol-1-yl)pyrimidin-4-yl)oxy)methyl)-1-methyl-1H-1,2,3-triazol-4-yl)-2-ethylpyridin-3-yl)piperidin-3-yl)acetic acid] as the molecule, how does the IC50 read?
**A.** The IC50 was less than 100 nM.

**Q.** How did the IC50 turn out when `Cc1nc(-c2nnn(C)c2CN2C[C@H](CC3CC3)N(C)C2=O)ccc1N1C[C@H](CC(=O)O)CC(F)(F)C1` [Example 64, 2-((R)-1-(6-(5-(((S)-4-(cyclopropylmethyl)-3-methyl-2-oxoimidazolidin-1-yl)methyl)-1-methyl-1H-1,2,3-triazol-4-yl)-2-methylpyridin-3-yl)-5,5-difluoropiperidin-3-yl)acetic acid] was run?
**A.** Its IC50 is 500 to 5000 nM.

**Q.** For `CCc1nc(-c2nnn(C)c2COc2ncnc(C3CCC3)n2)ccc1N1CCC[C@H](CC(=O)O)C1` [Example 95, (R)-2-(1-(6-(5-(((4-cyclobutyl-1,3,5-triazin-2-yl)oxy)methyl)-1-methyl-1H-1,2,3-triazol-4-yl)-2-ethylpyridin-3-yl)piperidin-3-yl)acetic acid], which IC50 is on record?
**A.** The IC50 was less than 100 nM.

**Q.** For `Cc1nc(-c2nnn(C)c2Cn2cc(CC3CC3)nn2)ccc1N1C[C@@H](CC(=O)O)CC(F)(F)C1` [Example 133, (S)-2-(1-(6-(5-((4-(cyclopropylmethyl)-1H-1,2,3-triazol-1-yl)methyl)-1-methyl-1H-1,2,3-triazol-4-yl)-2-methylpyridin-3-yl)-5,5-difluoropiperidin-3-yl)acetic acid], which IC50 is on record?
**A.** Its IC50 is 100 to 500 nM.

**Q.** `CCc1nc(-c2nnn(C)c2Cn2cc(N3CCC3)ccc2=O)ccc1N1C[C@@H](CC(=O)O)CC(F)(F)C1` [Example 27, (S)-2-(1-(6-(5-((5-(azetidin-1-yl)-2-oxopyridin-1(2H)-yl)methyl)-1-methyl-1H-1,2,3-triazol-4-yl)-2-ethylpyridin-3-yl)-5,5-difluoropiperidin-3-yl)acetic acid] was tested. Which IC50 did it give?
**A.** The IC50 was 500 to 5000 nM.

**Q.** `CCc1nc(-c2nnn(C)c2CNc2noc(CC3CC3)n2)ccc1N1C[C@@H](CC(=O)O)CC(F)(F)C1` [Example 117, (S)-2-(1-(6-(5-(((5-(cyclopropylmethyl)-1,2,4-oxadiazol-3-yl)amino)methyl)-1-methyl-1H-1,2,3-triazol-4-yl)-2-ethylpyridin-3-yl)-5,5-difluoropiperidin-3-yl)acetic acid] was tested. Which IC50 did it give?
**A.** Its IC50 is 100 to 500 nM.

**Q.** With `CCCc1ccc(=O)n(Cc2c(-c3ccc(N4CC(CC(=O)O)CCC4=O)c(CC)n3)nnn2C)c1` (single isomer, unassigned) [Example 54, (R) or (S)-2-(1-(2-ethyl-6-(1-methyl-5-((2-oxo-5-propylpyridin-1(2H)-yl)methyl)-1H-1,2,3-triazol-4-yl)pyridin-3-yl)-6-oxopiperidin-3-yl)acetic acid] as the molecule, how does the IC50 read?
**A.** Its IC50 is greater than 5000 nM.

**Q.** For `CCc1nc(-c2nnn(C)c2Cn2nc(C3CC3)ccc2=O)ccc1N1C[C@@H](CC(=O)O)CC(F)(F)C1` [Example 36, (S)2-(1-(6-(5-((3-cyclopropyl-6-oxopyridazin-1(6H)-yl)methyl)-1-methyl-1H-1,2,3-triazol-4-yl)-2-ethylpyridin-3-yl)-5,5-difluoropiperidin-3-yl)acetic acid], which IC50 is on record?
**A.** The IC50 was 100 to 500 nM.

**Q.** For `Cc1nc(-c2nnn(C)c2Cn2ccn(CC3CC3)c2=O)ccc1N1C[C@@H](CC(=O)O)CC(F)(F)C1` [Example 72, (S)-2-(1-(6-(5-((3-(cyclopropylmethyl)-2-oxo-2,3-dihydro-1H-imidazol-1-yl)methyl)-1-methyl-1H-1,2,3-triazol-4-yl)-2-methylpyridin-3-yl)-5,5-difluoropiperidin-3-yl)acetic acid], which IC50 is on record?
**A.** The IC50 was greater than 5000 nM.

**Q.** For `CCCc1ccc(=O)n(Cc2c(-c3ncc(CN4CC(C(=O)O)CC(F)(F)C4)c(CC)n3)cnn2C)c1` (single isomer, unassigned) [Example 161, (R) or (S)-1-((4-ethyl-2-(1-methyl-5-((2-oxo-5-propylpyridin-1(2H)-yl)methyl)-1H-pyrazol-4-yl)pyrimidin-5-yl)methyl)-5,5-difluoropiperidine-3-carboxylic acid], which IC50 is on record?
**A.** The IC50 was 500 to 5000 nM.

**Q.** `CCc1nc(-c2nnn(C)c2COc2ncnn2CC(C)C)ccc1N1C[C@@H](CC(=O)O)CC(F)(F)C1` [Example 123, (S)-2-(1-(2-ethyl-6-(5-(((1-isobutyl-1H-1,2,4-triazol-5-yl)oxy)methyl)-1-methyl-1H-1,2,3-triazol-4-yl)pyridin-3-yl)-5,5-difluoropiperidin-3-yl)acetic acid] was tested. Which IC50 did it give?
**A.** The IC50 was 100 to 500 nM.

**Q.** With `CCc1nc(-c2nnn(C)c2COc2cn(CC3CC3)nn2)ccc1N1C[C@@H](CC(=O)O)CC(F)(F)C1` [Example 126, (S)-2-(1-(6-(5-(((1-(cyclopropylmethyl)-1H-1,2,3-triazol-4-yl)oxy)methyl)-1-methyl-1H-1,2,3-triazol-4-yl)-2-ethylpyridin-3-yl)-5,5-difluoropiperidin-3-yl)acetic acid] as the molecule, how does the IC50 read?
**A.** The IC50 was 100 to 500 nM.

**Q.** With `CCc1nc(-c2nnn(C)c2COc2nnn(CC3CC3)n2)ccc1N1C[C@@H](CC(=O)O)CC(F)(F)C1` [Example 125, (S)-2-(1-(6-(5-(((2-(cyclopropylmethyl)-2H-tetrazol-5-yl)oxy)methyl)-1-methyl-1H-1,2,3-triazol-4-yl)-2-ethylpyridin-3-yl)-5,5-difluoropiperidin-3-yl)acetic acid] as the molecule, how does the IC50 read?
**A.** The IC50 was less than 100 nM.

**Q.** With `CCCn1ccc(=O)c(OCc2c(-c3ccc(N4C[C@@H](CC(=O)O)CC(F)(F)C4)c(CC)n3)nnn2C)c1` [Example 107, (S)-2-(1-(2-ethyl-6-(1-methyl-5-(((4-oxo-1-propyl-1,4-dihydropyridin-3-yl)oxy)methyl)-1H-1,2,3-triazol-4-yl)pyridin-3-yl)-5,5-difluoropiperidin-3-yl)acetic acid] as the molecule, how does the IC50 read?
**A.** The IC50 was greater than 5000 nM.

**Q.** With `Cc1nc(-c2nnn(C)c2Cn2cc(CC3CC3)n(C)c2=O)ccc1N1C[C@@H](CC(=O)O)CC(F)(F)C1` [Example 67, (S)-2-(1-(6-(5-((4-(cyclopropylmethyl)-3-methyl-2-oxo-2,3-dihydro-1H-imidazol-1-yl)methyl)-1-methyl-1H-1,2,3-triazol-4-yl)-2-methylpyridin-3-yl)-5,5-difluoropiperidin-3-yl)acetic acid] as the molecule, how does the IC50 read?
**A.** Its IC50 is 100 to 500 nM.

**Q.** `Cc1nc(-c2cnn(C)c2COc2cc(-n3cccn3)ncn2)ccc1N1C[C@@H](CC(=O)O)CC(F)(F)C1` [Example 89, (S)-2-(1-(6-(5-(((6-(1H-pyrazol-1-yl)pyrimidin-4-yl)oxy)methyl)-1-methyl-1H-pyrazol-4-yl)-2-methylpyridin-3-yl)-5,5-difluoropiperidin-3-yl)acetic acid] was tested. Which IC50 did it give?
**A.** Its IC50 is less than 100 nM.

**Q.** For `CCCOc1ccc(=O)n(Cc2c(-c3ccc(N4C[C@@H](CC(=O)O)CC(F)(F)C4)c(CC)n3)nnn2C)c1` [Example 25, (S)-2-(1-(2-ethyl-6-(1-methyl-5-((2-oxo-5-propoxypyridin-1 (2H)-yl)methyl)-1H-1,2,3-triazol-4-yl)pyridin-3-yl)-5,5-difluoropiperidin-3-yl)acetic acid], which IC50 is on record?
**A.** Its IC50 is 100 to 500 nM.
